# Laboratory results as given in US10604554B2, “Double-acylated GLP-1 derivatives” (Novo Nordisk A/S, priority 2012, dated 2020).
# Read-outs that look alike come from different tables or passages of the source.
# Molecular target: T1, human GLP-1 receptor (Homo sapiens, UniProt P43220)
# T1 construct: expressed in transfected cells; host or cells: BHK cells, clone FCW467-12A/KZ10-1 (parent line BHKTS13), further transfected with CRE luciferase
# Experiment: In vitro potency (AlphaScreen cAMP, membranes)
# Format: biochemical
# Experimental: The purpose of this example is to test the activity, or potency, of the GLP-1 derivatives in vitro.
# Purified plasma membranes from a stable transfected cell line, BHK467-12A (tk-ts13), expressing the human GLP-1 receptor were stimulated with the GLP-1 analogue or derivative in question, and the potency of cAMP production was measured using the AlphaScreen™ cAMP Assay Kit from Perkin Elmer Life Sciences. The basic principle of the AlphaScreen Assay is a competition between endogenous cAMP and exogenously added biotin-cAMP. The capture of cAMP is achieved by using a specific antibody conjugated to acceptor beads.
# A stable transfected cell line and a high expressing clone were selected for screening. The cells were grown at 5% CO2 in DMEM, 5% FCS, 1% Pen/Strep (Penicillin/Streptomycin) and 0.5 mg/ml of the selection marker G418.
# Cells at approximately 80% confluence were washed 2× with PBS and harvested with Versene (aqueous solution of the tetrasodium salt of ethylenediaminetetraacetic acid), centrifuged 5 min at 1000 rpm and the supernatant removed. The additional steps were all performed on ice. The cell pellet was homogenised by the Ultrathurax for 20-30 s in 10 ml of Buffer 1 (20 mM Na-HEPES, 10 mM EDTA, pH=7.4), centrifuged 15 min at 20,000 rpm and the pellet resuspended in 10 ml of Buffer 2 (20 mM Na-HEPES, 0.1 mM EDTA, pH=7.4). The suspension was homogenised for 20-30 s and centrifuged 15 min at 20,000 rpm. Suspension in Buffer 2, homogenisation and centrifugation was repeated once and the membranes were resuspended in Buffer 2. The protein concentration was determined and the membranes stored at −80° C. until use.
# The assay was performed in flat-bottom 96-well plates (Costar cat. no:3693). The final volume per well was 50 μl.
# AlphaScreen cAMP Assay Kit from Perkin Elmer Life Sciences (cat. No: 6760625M); containing Anti-cAMP Acceptor beads (10 U/μl), Streptavidin Donor beads (10 U/μl) and Biotinylated-cAMP (133 U/μl).
# AlphaScreen Buffer, pH=7.4: 50 mM TRIS-HCl (Sigma, cat.no: T3253); 5 mM HEPES (Sigma, cat.no: H3375); 10 mM MgCl2, 6H2O (Merck, cat.no: 5833); 150 mM NaCl (Sigma, cat.no: S9625); 0.01% Tween (Merck, cat.no: 822184). The following was added to the AlphaScreen Buffer prior to use (final concentrations indicated): BSA (Sigma, cat. no. A7906): 0.1%; IBMX (Sigma, cat. no. 15879): 0.5 mM; ATP (Sigma, cat. no. A7699): 1 mM; GTP (Sigma, cat. no. G8877): 1 uM.
# cAMP standard (dilution factor in assay=5): cAMP Solution: 5 μL of a 5 mM cAMP-stock+495 μL AlphaScreen Buffer.
# Membranes were prepared from hGLP-1/BHK 467-12A cells with a concentration of 6 μg/well corresponding to 0.6 mg/ml (the amount of membranes used pr. well may vary)
# “No membranes”: Acceptor Beads (15 μg/ml final) in AlphaScreen buffer
# “6 μg/well membranes”: membranes+Acceptor Beads (15 μg/ml final) in AlphaScreen buffer
# An aliquot (10 μl) of “No membranes” was added to the cAMP standard (per well in duplicate wells) and the positive and negative controls
# An aliquot (10 μl) of “6 μg/well membranes” was added to GLP-1 and analogues (per well in duplicate or triplicate wells)
# Pos. Control: 10 μl “no membranes”+10 μl AlphaScreen Buffer
# Neg. Control: 10 μl “no membranes”+10 μl cAMP Stock Solution (50 μM)
# As the beads are sensitive to direct light, any handling was in the dark (as dark as possible), or in green light. All dilutions were made on ice.
# 1. Make the AlphaScreen Buffer.
# 2. Dissolve and dilute the GLP-1/Analogues/cAMP standard in AlphaScreen Buffer.
# 3. Make the Donor Beads Solution by mixing streptavidin donor beads (2 units/well) and biotinylated cAMP (1.2 units/well) and incubate 20-30 min in the dark at room temperature
# 4. Add the cAMP/GLP-1/Analogues to the plate: 10 μl per well.
# 5. Prepare membrane/Acceptor Beads solution and add this to the plates: 10 μl per well.
# 6. Add the Donor Beads: 30 μl per well.
# 7. Wrap the plate in aluminum foil and incubate on the shaker for 3 hours (very slowly) at RT.
# T1 sequence (P43220 24-463): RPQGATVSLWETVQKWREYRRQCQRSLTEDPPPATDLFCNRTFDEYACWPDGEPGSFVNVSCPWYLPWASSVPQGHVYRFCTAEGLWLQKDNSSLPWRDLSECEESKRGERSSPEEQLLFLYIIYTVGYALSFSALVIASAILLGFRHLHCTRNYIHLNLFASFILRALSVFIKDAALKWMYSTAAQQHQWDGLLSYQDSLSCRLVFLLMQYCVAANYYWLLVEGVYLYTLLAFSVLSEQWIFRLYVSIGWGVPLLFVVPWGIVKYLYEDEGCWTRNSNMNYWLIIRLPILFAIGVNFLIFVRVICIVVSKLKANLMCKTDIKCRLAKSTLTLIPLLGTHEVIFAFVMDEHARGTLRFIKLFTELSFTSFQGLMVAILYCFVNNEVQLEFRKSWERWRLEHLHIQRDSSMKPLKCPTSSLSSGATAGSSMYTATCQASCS
Compound,EC50 [nM],"EC50 (cAMP formation in membranes from BHK467-12A cells expressing human GLP-1 receptor, read-out: In vitro potency (AlphaScreen) EC50) [nM]"
"CC[C@H](C)[C@H](NC(=O)[C@H](Cc1ccccc1)NC(=O)[C@H](CCC(=O)O)NC(=O)[C@H](CCCCNC(=O)[C@@H](N)CCCCNC(=O)[C@@H](N)CCCCNC(=O)CC[C@H](NC(=O)CCCCCCCCCOc1ccc(C(=O)O)cc1)C(=O)O)NC(=O)[C@H](C)NC(=O)[C@H](C)NC(=O)[C@H](CCC(N)=O)NC(=O)CNC(=O)[C@H](CCC(=O)O)NC(=O)[C@H](CC(C)C)NC(=O)[C@H](Cc1ccc(O)cc1)NC(=O)[C@H](CO)NC(=O)[C@H](CO)NC(=O)[C@@H](NC(=O)[C@H](CC(=O)O)NC(=O)[C@H](CO)NC(=O)[C@@H](NC(=O)[C@H](Cc1ccccc1)NC(=O)[C@@H](NC(=O)CNC(=O)[C@H](CCC(=O)O)NC(=O)C(C)(C)NC(=O)[C@@H](N)Cc1c[nH]cn1)[C@@H](C)O)[C@@H](C)O)C(C)C)C(=O)N[C@@H](C)C(=O)N[C@@H](Cc1c[nH]c2ccccc12)C(=O)N[C@@H](CC(C)C)C(=O)N[C@H](C(=O)N[C@@H](CCCNC(=N)N)C(=O)NCC(=O)N[C@@H](CCCNC(=N)N)C(=O)N[C@@H](CCCCNC(=O)[C@@H](N)CCCCNC(=O)[C@@H](N)CCCCNC(=O)CC[C@H](NC(=O)CCCCCCCCCOc1ccc(C(=O)O)cc1)C(=O)O)C(=O)O)C(C)C [Example 1, N^ε26-[(2S)-2-amino-6-[[(2S)-2-amino-6-[[(4S)-4-carboxy-4-[10-(4-carboxyphenoxy)decanoylamino]butanoyl]amino]hexanoyl]amino]hexanoyl], N^ε37-[(2S)-2-amino-6-[[(2S)-2-amino-6-[[(4S)-4-carboxy-4-[10-(4-carboxyphenoxy)decanoylamino]butanoyl]amino]hexanoyl]amino]hexanoyl]-[Aib^8, Arg^34,Lys^37]-GLP-1-(7-37)-peptide]",0.059,
"CC[C@H](C)[C@H](NC(=O)[C@H](Cc1ccccc1)NC(=O)[C@H](CCC(=O)O)NC(=O)[C@H](CCCCNC(=O)[C@@H](N)CCCCNC(=O)[C@@H](N)CCCCNC(=O)CC[C@H](NC(=O)CCCCCCCCCCCCC(=O)O)C(=O)O)NC(=O)[C@H](C)NC(=O)[C@H](C)NC(=O)[C@H](CCC(N)=O)NC(=O)CNC(=O)[C@H](CCC(=O)O)NC(=O)[C@H](CC(C)C)NC(=O)[C@H](Cc1ccc(O)cc1)NC(=O)[C@H](CO)NC(=O)[C@H](CO)NC(=O)[C@@H](NC(=O)[C@H](CC(=O)O)NC(=O)[C@H](CO)NC(=O)[C@@H](NC(=O)[C@H](Cc1ccccc1)NC(=O)[C@@H](NC(=O)CNC(=O)[C@H](CCC(=O)O)NC(=O)C(C)(C)NC(=O)[C@@H](N)Cc1c[nH]cn1)[C@@H](C)O)[C@@H](C)O)C(C)C)C(=O)N[C@@H](C)C(=O)N[C@@H](Cc1c[nH]c2ccccc12)C(=O)N[C@@H](CC(C)C)C(=O)N[C@H](C(=O)N[C@@H](CCCNC(=N)N)C(=O)NCC(=O)N[C@@H](CCCNC(=N)N)C(=O)N[C@@H](CCCCNC(=O)[C@@H](N)CCCCNC(=O)[C@@H](N)CCCCNC(=O)CC[C@H](NC(=O)CCCCCCCCCCCCC(=O)O)C(=O)O)C(=O)O)C(C)C [Example 2, N^ε26-[(2S)-2-amino-6-[[(2S)-2-amino-6-[[(4S)-4-carboxy-4-(13-carboxytridecanoylamino)butanoyl]amino]hexanoyl]amino]hexanoyl], N^ε37-[(2S)-2-amino-6-[[(2S)-2-amino-6-[[(4S)-4-carboxy-4-(13-carboxytridecanoylamino)butanoyl]amino]hexanoyl]amino]hexanoyl]-[Aib^8,Arg^34,Lys^37]-GLP-1-(7-37)-peptide]",,0.044
CC[C@H](C)[C@H](NC(=O)[C@H](Cc1ccccc1)NC(=O)[C@H](CCC(=O)O)NC(=O)[C@H](CCCCNC(=O)[C@@H](N)CCCCNC(=O)COCCOCCNC(=O)COCCOCCNC(=O)CC[C@H](NC(=O)CCCCCCCCCOc1ccc(C(=O)O)cc1)C(=O)O)NC(=O)[C@H](C)NC(=O)[C@H](C)NC(=O)[C@H](CCC(N)=O)NC(=O)CNC(=O)[C@H](CCC(=O)O)NC(=O)[C@H](CC(C)C)NC(=O)[C@H](Cc1ccc(O)cc1)NC(=O)[C@H](CO)NC(=O)[C@H](CO)NC(=O)[C@@H](NC(=O)[C@H](CC(=O)O)NC(=O)[C@H](CO)NC(=O)[C@@H](NC(=O)[C@H](Cc1ccccc1)NC(=O)[C@@H](NC(=O)CNC(=O)[C@H](CCC(=O)O)NC(=O)C(C)(C)NC(=O)[C@@H](N)Cc1c[nH]cn1)[C@@H](C)O)[C@@H](C)O)C(C)C)C(=O)N[C@@H](C)C(=O)N[C@@H](Cc1c[nH]c2ccccc12)C(=O)N[C@@H](CC(C)C)C(=O)N[C@H](C(=O)N[C@@H](CCCNC(=N)N)C(=O)NCC(=O)N[C@@H](CCCNC(=N)N)C(=O)N[C@@H](CCCCNC(=O)[C@@H](N)CCCCNC(=O)COCCOCCNC(=O)COCCOCCNC(=O)CC[C@H](NC(=O)CCCCCCCCCOc1ccc(C(=O)O)cc1)C(=O)O)C(=O)O)C(C)C [Example 5],0.033,
"CC[C@H](C)[C@H](NC(=O)[C@H](Cc1ccccc1)NC(=O)[C@H](CCC(=O)O)NC(=O)[C@H](CCCCNC(=O)[C@@H](N)CCCCNC(=O)[C@@H](N)CCCCNC(=O)CC[C@H](NC(=O)CCCCCCCCCCCOc1ccc(C(=O)O)cc1)C(=O)O)NC(=O)[C@H](C)NC(=O)[C@H](C)NC(=O)[C@H](CCC(N)=O)NC(=O)CNC(=O)[C@H](CCC(=O)O)NC(=O)[C@H](CC(C)C)NC(=O)[C@H](Cc1ccc(O)cc1)NC(=O)[C@H](CO)NC(=O)[C@H](CO)NC(=O)[C@@H](NC(=O)[C@H](CC(=O)O)NC(=O)[C@H](CO)NC(=O)[C@@H](NC(=O)[C@H](Cc1ccccc1)NC(=O)[C@@H](NC(=O)CNC(=O)[C@H](CCC(=O)O)NC(=O)C(C)(C)NC(=O)[C@@H](N)Cc1c[nH]cn1)[C@@H](C)O)[C@@H](C)O)C(C)C)C(=O)N[C@@H](C)C(=O)N[C@@H](Cc1c[nH]c2ccccc12)C(=O)N[C@@H](CC(C)C)C(=O)N[C@H](C(=O)N[C@@H](CCCNC(=N)N)C(=O)NCC(=O)N[C@@H](CCCNC(=N)N)C(=O)N[C@@H](CCCCNC(=O)[C@@H](N)CCCCNC(=O)[C@@H](N)CCCCNC(=O)CC[C@H](NC(=O)CCCCCCCCCCCOc1ccc(C(=O)O)cc1)C(=O)O)C(=O)O)C(C)C [Example 7, N^ε26-[(2S)-2-amino-6-[[(2S)-2-amino-6-[[(4S)-4-carboxy-4-[12-(4-carboxyphenoxy)dodecanoylamino]butanoyl]amino]hexanoyl]amino]hexanoyl], N^ε37-[(2S)-2-amino-6-[[(2S)-2-amino-6-[[(4S)-4-carboxy-4-[12-(4-carboxyphenoxy)dodecanoylamino]butanoyl]amino]hexanoyl]amino]hexanoyl]-[Aib^8,Arg^34,Lys^37]-GLP-1-(7-37)-peptide]",0.136,
